In ChEMBL document CHEMBL1201862, “PubChem BioAssay data set” (2004):
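Test compounds were applied to cells in 96-well plates for 48 hours at 5 doses. GI50: concentration for 50% inhibition of growth.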 Calls of active or inactive are those of the source. Rule as the data show it: active = GI50 up to about 1.1 µM and inactive = higher.

Experiments:
Test in all cases: NCI tumour cell line growth inhibition, 48 h
SK-MEL-5 = tested on: SK-MEL-5
SK-MEL-2 = tested on: SK-MEL-2
UACC-62 = tested on: UACC-62
SW-620 = tested on: SW-620
MDA-N = tested on: MDA-N
SK-MEL-28 = tested on: SK-MEL-28
RPMI-8226 = tested on: RPMI-8226
BT-549 = tested on: BT-549
MOLT-4 = tested on: MOLT-4
Malme-3M = tested on: Malme-3M
M14 = tested on: M14
T47D = tested on: T47D
CCRF-CEM = tested on: CCRF-CEM
OVCAR-5 = tested on: OVCAR-5
NCI-H23 = tested on: NCI-H23
SK-OV-3 = tested on: SK-OV-3
OVCAR-8 = tested on: OVCAR-8
UO-31 = tested on: UO-31
SNB-19 = tested on: SNB-19
OVCAR-4 = tested on: OVCAR-4
COLO 205 = tested on: COLO 205
IGROV-1 = tested on: IGROV-1
LOX IMVI = tested on: LOX IMVI
MDA-MB-435 = tested on: MDA-MB-435
KM12 = tested on: KM12
NCI-H460 = tested on: NCI-H460
EKVX = tested on: EKVX
MCF7 = tested on: MCF7
K562 = tested on: K562
OVCAR-3 = tested on: OVCAR-3
DU-145 = tested on: DU-145
SR = tested on: SR
NCI-H522 = tested on: NCI-H522
SF-539 = tested on: SF-539
ACHN = tested on: ACHN
CAKI-1 = tested on: CAKI-1
HL-60 = tested on: HL-60
HT-29 = tested on: HT-29
A498 = tested on: A498
HCT-116 = tested on: HCT-116
SF-295 = tested on: SF-295
786-0 = tested on: 786-0
PC-3 = tested on: PC-3
HCC 2998 = tested on: HCC 2998
NCI/ADR-RES = tested on: NCI/ADR-RES
U-251 = tested on: U-251
A549 = tested on: A549
UACC-257 = tested on: UACC-257
HCT-15 = tested on: HCT-15
HOP-62 = tested on: HOP-62
Hs-578T = tested on: Hs-578T
TK-10 = tested on: TK-10
HOP-92 = tested on: HOP-92
SN12C = tested on: SN12C
MDA-MB-231 = tested on: MDA-MB-231
NCI-H226 = tested on: NCI-H226
RXF 393 = tested on: RXF 393
SNB-75 = tested on: SNB-75

SMILES: O=C1/C(=C\c2ccc(Cl)cc2)N=C(c2ccccc2)N1n1c(=O)cn[nH]c1=S
- GI50 (SK-MEL-5): 21.7 µM (inactive)
- GI50 (SK-MEL-2): > 100 µM (inactive)
- GI50 (UACC-62): 33.7 µM (inactive)
- GI50 (SW-620): 18.1 µM (inactive)
- GI50 (MDA-N): 52.6 µM (inactive)
- GI50 (SK-MEL-28): > 100 µM (inactive)
- GI50 (RPMI-8226): 18.4 µM (inactive)
- GI50 (BT-549): 28.5 µM (inactive)
- GI50 (MOLT-4): 18.7 µM (inactive)
- GI50 (Malme-3M): > 100 µM (inactive)
- GI50 (M14): > 100 µM (inactive)
- GI50 (T47D): 13.5 µM (inactive)
- GI50 (CCRF-CEM): 2.56 µM (inactive)
- GI50 (OVCAR-5): > 100 µM (inactive)
- GI50 (NCI-H23): 20.3 µM (inactive)
- GI50 (SK-OV-3): > 100 µM (inactive)
- GI50 (OVCAR-8): 21.8 µM (inactive)
- GI50 (UO-31): 60.4 µM (inactive)
- GI50 (SNB-19): 54.3 µM (inactive)
- GI50 (OVCAR-4): 23.6 µM (inactive)
- GI50 (COLO 205): > 100 µM (inactive)
- GI50 (IGROV-1): 18.5 µM (inactive)
- GI50 (LOX IMVI): 27.8 µM (inactive)
- GI50 (MDA-MB-435): 30.5 µM (inactive)
- GI50 (KM12): > 100 µM (inactive)
- GI50 (NCI-H460): > 100 µM (inactive)
- GI50 (EKVX): > 100 µM (inactive)
- GI50 (MCF7): 18.4 µM (inactive)
- GI50 (K562): 16.9 µM (inactive)
- GI50 (OVCAR-3): 27.4 µM (inactive)
- GI50 (DU-145): 19.8 µM (inactive)
- GI50 (SR): 22.5 µM (inactive)
- GI50 (NCI-H522): 15.8 µM (inactive)
- GI50 (SF-539): > 100 µM (inactive)
- GI50 (ACHN): > 100 µM (inactive)
- GI50 (CAKI-1): 40.2 µM (inactive)
- GI50 (HL-60): 18.2 µM (inactive)
- GI50 (HT-29): 37.7 µM (inactive)
- GI50 (A498): > 100 µM (inactive)
- GI50 (HCT-116): 68.2 µM (inactive)
- GI50 (SF-295): > 100 µM (inactive)
- GI50 (786-0): 18.4 µM (inactive)
- GI50 (PC-3): 39.7 µM (inactive)
- GI50 (HCC 2998): 84.3 µM (inactive)
- GI50 (NCI/ADR-RES): 45 µM (inactive)
- GI50 (U-251): 19.8 µM (inactive)
- GI50 (A549): > 100 µM (inactive)
- GI50 (UACC-257): 29.5 µM (inactive)
- GI50 (HCT-15): 21.5 µM
- GI50 (HOP-62): 52.2 µM (inactive)

SMILES: c1cncc(-c2ncc3cccnc3n2)c1
- GI50 (Hs-578T): > 100 µM (inactive)
- GI50 (SK-MEL-5): > 100 µM (inactive)
- GI50 (SK-MEL-2): > 100 µM (inactive)
- GI50 (UACC-62): > 100 µM (inactive)
- GI50 (SW-620): > 100 µM (inactive)
- GI50 (MDA-N): > 100 µM (inactive)
- GI50 (TK-10): > 100 µM (inactive)
- GI50 (HOP-92): > 100 µM (inactive)
- GI50 (RPMI-8226): > 100 µM (inactive)
- GI50 (SN12C): > 100 µM (inactive)
- GI50 (BT-549): > 100 µM (inactive)
- GI50 (MOLT-4): > 100 µM (inactive)
- GI50 (Malme-3M): > 100 µM (inactive)
- GI50 (MDA-MB-231): > 100 µM (inactive)
- GI50 (CCRF-CEM): > 100 µM (inactive)
- GI50 (OVCAR-5): > 100 µM (inactive)
- GI50 (NCI-H23): > 100 µM (inactive)
- GI50 (SK-OV-3): > 100 µM (inactive)
- GI50 (OVCAR-8): > 100 µM (inactive)
- GI50 (UO-31): > 100 µM (inactive)
- GI50 (SNB-19): > 100 µM (inactive)
- GI50 (OVCAR-4): > 100 µM (inactive)
- GI50 (COLO 205): > 100 µM (inactive)
- GI50 (IGROV-1): > 100 µM (inactive)
- GI50 (LOX IMVI): > 100 µM (inactive)
- GI50 (KM12): > 100 µM (inactive)
- GI50 (NCI-H460): > 100 µM (inactive)
- GI50 (EKVX): > 100 µM (inactive)
- GI50 (MCF7): > 100 µM (inactive)
- GI50 (K562): > 100 µM (inactive)
- GI50 (OVCAR-3): > 100 µM (inactive)
- GI50 (DU-145): 43.4 µM (inactive)
- GI50 (NCI-H522): > 100 µM (inactive)
- GI50 (SF-539): > 100 µM (inactive)
- GI50 (ACHN): > 100 µM (inactive)
- GI50 (NCI-H226): > 100 µM (inactive)
- GI50 (CAKI-1): > 100 µM (inactive)
- GI50 (HL-60): > 100 µM (inactive)
- GI50 (HT-29): > 100 µM (inactive)
- GI50 (A498): > 100 µM (inactive)
- GI50 (RXF 393): > 100 µM (inactive)
- GI50 (HCT-116): > 100 µM (inactive)
- GI50 (SF-295): > 100 µM (inactive)
- GI50 (786-0): > 100 µM (inactive)
- GI50 (SNB-75): > 100 µM (inactive)
- GI50 (PC-3): > 100 µM (inactive)
- GI50 (HCC 2998): > 100 µM (inactive)
- GI50 (NCI/ADR-RES): > 100 µM (inactive)
- GI50 (U-251): > 100 µM (inactive)
- GI50 (A549): > 100 µM (inactive)
- GI50 (UACC-257): > 100 µM (inactive)
- GI50 (HCT-15): > 100 µM
- GI50 (HOP-62): > 100 µM (inactive)
